Results as given in ChEMBL document CHEMBL1201862, “PubChem BioAssay data set” (2004).
The source made the active and inactive calls.

Columns and labels:
[1] = biological target: T1, Alkaline phosphatase, tissue-nonspecific isozyme (Homo sapiens, UniProt P05186); assay: human TNAP enzyme inhibitors, SAR follow-up, biochemical, luminescent, dose response (AID 1056)
T1 sequence (P05186 whole entry): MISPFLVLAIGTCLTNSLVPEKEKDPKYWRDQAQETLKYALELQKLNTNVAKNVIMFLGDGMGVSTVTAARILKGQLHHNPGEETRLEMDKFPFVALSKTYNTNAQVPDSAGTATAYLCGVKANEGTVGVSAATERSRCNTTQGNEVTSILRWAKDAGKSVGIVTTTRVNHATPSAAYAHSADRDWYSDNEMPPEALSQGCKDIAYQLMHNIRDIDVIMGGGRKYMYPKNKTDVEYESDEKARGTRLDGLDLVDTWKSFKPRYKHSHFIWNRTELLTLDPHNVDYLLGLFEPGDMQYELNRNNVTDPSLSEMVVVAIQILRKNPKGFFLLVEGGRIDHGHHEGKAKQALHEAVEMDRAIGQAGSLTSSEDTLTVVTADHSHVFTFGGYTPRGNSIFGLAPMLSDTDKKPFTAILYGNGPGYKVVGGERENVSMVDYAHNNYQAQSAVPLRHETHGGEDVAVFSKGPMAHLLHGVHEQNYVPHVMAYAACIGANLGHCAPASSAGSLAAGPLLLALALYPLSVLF

[2] = biological target: Glyceraldehyde-3-phosphate dehydrogenase (Homo sapiens, UniProt P04406)
[3] = biological target: T2, Ubiquitin-conjugating enzyme E2 N (Homo sapiens, UniProt P61088); type: functional;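 also: Dose-response confirmation in a TR-FRET assay detecting UBC13-driven polyubiquitin chain formation, inhibition measured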
T2 sequence (P61088 whole entry): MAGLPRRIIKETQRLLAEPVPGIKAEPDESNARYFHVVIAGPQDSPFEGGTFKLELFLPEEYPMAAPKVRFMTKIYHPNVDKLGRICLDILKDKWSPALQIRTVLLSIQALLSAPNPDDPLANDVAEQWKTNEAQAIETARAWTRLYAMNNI

[4] = cytotoxicity toward DRD oncogenic fibroblasts, dose response, cell-based, non-viral oncogenic, luminescence (AID 1934); type: functional; conditions: Homo sapiens
[5] = system: BJ; assay: cytotoxicity toward BJ-TERT-LT-ST fibroblasts, dose response, cell-based, RAS-independent, luminescence (AID 1935); type: functional; conditions: Homo sapiens;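 also: BJ fibroblasts immortalized with TERT plus LT and ST oncogenes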
[6] = system: BJ; assay: cytotoxicity toward Ras-transformed BJeLR fibroblasts, dose response, cell-based, alamar blue fluorescence, cherrypicked samples (AID 2631); type: functional; conditions: Homo sapiens;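 also: confirmatory dose-response assay in RAS-dependent BJ fibroblasts engineered with TERT, LT and ST, with cytotoxicity read by fluorescence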
[7] = cytotoxicity in HEK-293T cells, dose response, cytotoxicity control for TCR NF-kB inhibitor project, luminescence, T-cell screen hits (AID 489026); type: functional, cell-based;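 also: cells exposed to compound about 14 hours before the viability readout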
[8] = system: BJ; assay: cytotoxicity toward BJ-TERT fibroblasts, dose response, cell-based, RAS-independent, luminescence (AID 1933); type: functional; conditions: Homo sapiens
[9] = system: BJ; assay: cells; type: functional, cell-based; conditions: Homo sapiens
[10] = system: Escherichia coli; assay: microbe, parasite or virus in culture
[11] = system: HEK293; assay: cells; type: functional, cell-based; conditions: Homo sapiens
[12] = system: HEK293; assay: NOD1 signaling inhibitors, primary screen, cell-based, luminescence, uHTS (AID 1578); type: functional; conditions: Homo sapiens
[13] = system: HEK293; assay: cells; type: functional, cell-based; conditions: Homo sapiens; remark: listed apart in the source
[14] = system: HEK293; assay: NOD2 signaling inhibitors in MDP-stimulated cells, cell-based, uHTS, luminescence (AID 2001); type: functional; conditions: Homo sapiens
[15] = biological target: Genome polyprotein (dengue virus type 2, UniProt P29990); assay: Dengue-2 NS5 methyltransferase inhibitors, primary screen, biochemical, confirmation dose response (AID 588689); type: functional
[16] = biological target: T3, Leucine aminopeptidase (Plasmodium falciparum 3D7, UniProt Q8IL11); assay: P. falciparum M17LAP inhibitors, primary screen, biochemical, fluorogenic H-Leu-NHMec substrate, 1536-well (AID 1619); type: functional
T3 sequence (Q8IL11 whole entry): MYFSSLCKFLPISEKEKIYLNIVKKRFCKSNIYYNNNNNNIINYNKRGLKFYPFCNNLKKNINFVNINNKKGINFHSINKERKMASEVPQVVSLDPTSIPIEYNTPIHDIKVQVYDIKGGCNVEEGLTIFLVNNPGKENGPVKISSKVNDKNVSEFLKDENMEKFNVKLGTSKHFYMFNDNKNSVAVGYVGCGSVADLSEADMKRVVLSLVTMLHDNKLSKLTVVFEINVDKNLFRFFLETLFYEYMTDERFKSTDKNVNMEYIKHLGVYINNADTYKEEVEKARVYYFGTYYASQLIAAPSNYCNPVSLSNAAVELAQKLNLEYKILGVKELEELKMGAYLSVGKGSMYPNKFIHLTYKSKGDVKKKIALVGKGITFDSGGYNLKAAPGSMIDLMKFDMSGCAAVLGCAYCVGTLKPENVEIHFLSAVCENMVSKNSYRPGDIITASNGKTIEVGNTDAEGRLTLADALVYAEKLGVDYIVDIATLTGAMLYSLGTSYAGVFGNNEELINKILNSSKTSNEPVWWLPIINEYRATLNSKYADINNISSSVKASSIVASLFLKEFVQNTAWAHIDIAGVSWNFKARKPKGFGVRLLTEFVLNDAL

[17] = HEp-2 cell cytotoxicity, dose response, cytotoxicity control for RSV inhibitor project, HTS (AID 2410); type: functional; conditions: human respiratory syncytial virus
[18] = biological target: T4, Coagulation factor XII (Homo sapiens, UniProt P00748); type: functional;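 also: activated factor XIIa alpha cleaving a fluorogenic AMC peptide substrate; inhibitor potency from loss of enzyme activity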
T4 sequence (P00748 whole entry): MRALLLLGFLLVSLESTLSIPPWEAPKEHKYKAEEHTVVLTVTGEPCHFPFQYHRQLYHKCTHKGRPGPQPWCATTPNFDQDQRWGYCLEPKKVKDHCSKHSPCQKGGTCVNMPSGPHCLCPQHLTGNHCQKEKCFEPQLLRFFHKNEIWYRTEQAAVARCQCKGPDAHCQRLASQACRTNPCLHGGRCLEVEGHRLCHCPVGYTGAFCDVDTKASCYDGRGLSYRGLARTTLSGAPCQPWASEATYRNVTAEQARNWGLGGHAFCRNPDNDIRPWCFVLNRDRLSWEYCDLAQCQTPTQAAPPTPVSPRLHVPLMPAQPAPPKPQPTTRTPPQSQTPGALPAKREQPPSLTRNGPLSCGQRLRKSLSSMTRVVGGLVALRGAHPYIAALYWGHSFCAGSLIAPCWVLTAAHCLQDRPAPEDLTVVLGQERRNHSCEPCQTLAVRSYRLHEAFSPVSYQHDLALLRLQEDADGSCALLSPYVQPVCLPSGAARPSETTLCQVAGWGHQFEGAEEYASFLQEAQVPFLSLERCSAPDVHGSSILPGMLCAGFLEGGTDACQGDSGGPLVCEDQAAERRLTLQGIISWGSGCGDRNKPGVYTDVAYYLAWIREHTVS

[19] = biological target: T5, High affinity choline transporter 1 (Homo sapiens, UniProt Q9GZV3); assay: CHT inhibitors, dose response, cell-based, 5-point CRC, membrane potential dye (AID 504840); type: functional
T5 sequence (Q9GZV3 whole entry): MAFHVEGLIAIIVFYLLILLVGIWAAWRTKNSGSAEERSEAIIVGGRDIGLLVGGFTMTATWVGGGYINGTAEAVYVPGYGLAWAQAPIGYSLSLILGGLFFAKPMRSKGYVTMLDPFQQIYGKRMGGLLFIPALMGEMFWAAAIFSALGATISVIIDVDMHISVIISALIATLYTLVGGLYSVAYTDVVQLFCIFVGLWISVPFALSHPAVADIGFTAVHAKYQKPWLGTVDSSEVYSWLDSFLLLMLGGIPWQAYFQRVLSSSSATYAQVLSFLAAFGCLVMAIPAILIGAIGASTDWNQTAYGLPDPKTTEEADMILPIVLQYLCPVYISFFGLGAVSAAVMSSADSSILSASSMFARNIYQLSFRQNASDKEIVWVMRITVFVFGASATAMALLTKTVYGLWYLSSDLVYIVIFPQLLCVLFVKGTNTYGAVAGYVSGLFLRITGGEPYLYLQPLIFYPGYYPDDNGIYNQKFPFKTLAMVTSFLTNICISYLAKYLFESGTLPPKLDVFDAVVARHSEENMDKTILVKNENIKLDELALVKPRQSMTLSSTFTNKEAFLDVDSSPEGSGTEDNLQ

[20] = biological target: T6, Calpain-2 catalytic subunit (Sus scrofa, UniProt P43367); assay: pig calpain II inhibitor potency, dose response, biochemical, fluorogenic peptide substrate (AID 1420); type: functional
T6 sequence (P43367 whole entry): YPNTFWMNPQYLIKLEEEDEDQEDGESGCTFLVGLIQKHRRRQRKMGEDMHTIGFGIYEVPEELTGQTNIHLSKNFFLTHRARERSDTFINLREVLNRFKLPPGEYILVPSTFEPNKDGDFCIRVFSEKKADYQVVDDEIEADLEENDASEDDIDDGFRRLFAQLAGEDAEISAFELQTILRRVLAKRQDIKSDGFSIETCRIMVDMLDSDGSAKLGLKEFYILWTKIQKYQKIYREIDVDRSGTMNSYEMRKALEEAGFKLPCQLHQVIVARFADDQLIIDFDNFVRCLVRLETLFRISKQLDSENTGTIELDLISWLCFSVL

[21] = biological target: Nonstructural protein 1 (Influenza A virus, UniProt Q194T2); type: functional, Influenza A virus (A/California/07/2009(H1N1))
[22] = biological target: T7, DNA repair and recombination protein RAD54-like (Homo sapiens, UniProt Q92698); assay: inhibitors of human RAD54 branch migration, confirmation, biochemical, fluorescence, cherry-picked samples, dose series (AID 651657); type: functional
T7 sequence (Q92698 whole entry): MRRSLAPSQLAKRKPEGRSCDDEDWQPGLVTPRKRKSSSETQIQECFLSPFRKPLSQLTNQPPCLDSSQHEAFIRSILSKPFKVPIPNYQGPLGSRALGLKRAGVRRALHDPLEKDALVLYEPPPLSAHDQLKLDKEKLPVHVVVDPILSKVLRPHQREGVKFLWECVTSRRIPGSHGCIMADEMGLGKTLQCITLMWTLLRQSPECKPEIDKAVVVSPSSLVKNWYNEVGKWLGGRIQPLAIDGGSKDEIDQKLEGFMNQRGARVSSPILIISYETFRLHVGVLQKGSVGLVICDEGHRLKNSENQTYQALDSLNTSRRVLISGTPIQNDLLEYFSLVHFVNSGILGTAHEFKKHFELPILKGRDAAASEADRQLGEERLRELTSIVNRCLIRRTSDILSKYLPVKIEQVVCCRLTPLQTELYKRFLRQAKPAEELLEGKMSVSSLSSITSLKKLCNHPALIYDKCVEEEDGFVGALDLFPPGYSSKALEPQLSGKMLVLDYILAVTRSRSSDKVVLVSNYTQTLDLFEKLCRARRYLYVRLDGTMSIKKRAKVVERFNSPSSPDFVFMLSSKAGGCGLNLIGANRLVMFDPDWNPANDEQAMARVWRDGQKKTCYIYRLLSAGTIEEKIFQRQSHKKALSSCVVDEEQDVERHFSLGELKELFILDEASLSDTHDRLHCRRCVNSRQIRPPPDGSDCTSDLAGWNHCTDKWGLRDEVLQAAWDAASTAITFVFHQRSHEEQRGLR

[23] = biological target: Cytochrome P450 3A4 (Homo sapiens, UniProt P08684);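 also: CYP3A4 tested as one member of a cytochrome P450 panel screen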
Chain of Cytochrome P450 3A4 (P08684 whole entry): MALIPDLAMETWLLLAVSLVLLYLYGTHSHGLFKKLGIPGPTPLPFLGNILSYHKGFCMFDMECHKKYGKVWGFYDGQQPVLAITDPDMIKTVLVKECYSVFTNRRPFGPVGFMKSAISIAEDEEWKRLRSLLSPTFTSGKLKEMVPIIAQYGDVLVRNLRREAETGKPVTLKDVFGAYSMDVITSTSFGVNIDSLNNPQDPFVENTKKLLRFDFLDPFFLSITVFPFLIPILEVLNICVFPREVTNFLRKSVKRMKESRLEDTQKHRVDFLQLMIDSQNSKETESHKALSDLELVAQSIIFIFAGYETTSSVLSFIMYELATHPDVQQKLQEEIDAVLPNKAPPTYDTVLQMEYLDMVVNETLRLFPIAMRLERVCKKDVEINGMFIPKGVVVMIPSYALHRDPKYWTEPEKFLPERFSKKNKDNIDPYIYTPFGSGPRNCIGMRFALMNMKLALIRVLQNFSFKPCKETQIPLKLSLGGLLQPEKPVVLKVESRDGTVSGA

Chain of Glyceraldehyde-3-phosphate dehydrogenase (P04406 whole entry): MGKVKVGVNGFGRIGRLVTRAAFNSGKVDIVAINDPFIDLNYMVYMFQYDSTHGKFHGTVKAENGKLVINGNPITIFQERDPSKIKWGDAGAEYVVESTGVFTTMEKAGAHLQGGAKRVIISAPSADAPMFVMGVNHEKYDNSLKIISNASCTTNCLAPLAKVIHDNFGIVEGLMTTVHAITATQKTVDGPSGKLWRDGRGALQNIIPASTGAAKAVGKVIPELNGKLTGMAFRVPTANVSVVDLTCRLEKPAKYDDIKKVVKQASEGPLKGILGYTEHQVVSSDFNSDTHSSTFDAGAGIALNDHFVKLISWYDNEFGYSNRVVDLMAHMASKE
Chain of Nonstructural protein 1 (Q194T2 whole entry): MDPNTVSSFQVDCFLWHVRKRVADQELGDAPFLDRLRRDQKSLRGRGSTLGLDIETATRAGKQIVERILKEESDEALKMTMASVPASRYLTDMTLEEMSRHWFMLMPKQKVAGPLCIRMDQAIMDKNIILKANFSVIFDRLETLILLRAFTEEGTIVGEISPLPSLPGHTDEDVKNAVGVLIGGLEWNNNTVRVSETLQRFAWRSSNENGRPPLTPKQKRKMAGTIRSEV
Chain of Genome polyprotein (P29990 2492-3391 limits assumed): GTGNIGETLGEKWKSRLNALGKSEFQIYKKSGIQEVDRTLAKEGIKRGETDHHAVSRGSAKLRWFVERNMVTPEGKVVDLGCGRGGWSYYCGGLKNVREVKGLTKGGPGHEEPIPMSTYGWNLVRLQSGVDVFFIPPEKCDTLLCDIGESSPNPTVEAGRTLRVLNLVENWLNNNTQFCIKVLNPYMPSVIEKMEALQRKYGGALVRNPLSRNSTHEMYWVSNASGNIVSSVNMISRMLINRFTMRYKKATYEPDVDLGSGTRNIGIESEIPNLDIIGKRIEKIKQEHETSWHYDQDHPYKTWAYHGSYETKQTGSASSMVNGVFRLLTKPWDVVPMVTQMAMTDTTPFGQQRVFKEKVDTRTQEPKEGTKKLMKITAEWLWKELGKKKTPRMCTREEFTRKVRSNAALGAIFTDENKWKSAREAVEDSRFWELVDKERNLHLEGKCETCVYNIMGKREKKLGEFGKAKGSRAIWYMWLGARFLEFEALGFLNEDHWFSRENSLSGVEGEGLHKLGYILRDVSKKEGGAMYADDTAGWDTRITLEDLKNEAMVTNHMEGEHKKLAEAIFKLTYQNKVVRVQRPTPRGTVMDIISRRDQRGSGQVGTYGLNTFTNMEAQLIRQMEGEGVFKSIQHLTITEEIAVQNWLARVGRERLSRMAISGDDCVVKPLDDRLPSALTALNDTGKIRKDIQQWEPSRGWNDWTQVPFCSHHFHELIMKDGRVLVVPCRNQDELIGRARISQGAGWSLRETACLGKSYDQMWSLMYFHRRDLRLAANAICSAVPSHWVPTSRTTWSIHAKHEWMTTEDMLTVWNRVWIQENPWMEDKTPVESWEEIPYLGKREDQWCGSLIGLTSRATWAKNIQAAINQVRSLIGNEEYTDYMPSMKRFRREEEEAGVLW

CCOC(=O)c1nnc(-c2ccccc2)o1
IC50 [1]: > 100 µM (inactive)
IC50 [2]: > 100 µM (not active)

Cc1ccc2c(c1)C1CN(C)CCC1N2C(=O)CCCN1C(=O)c2cccc3cccc(c23)C1=O (centres undefined)
IC50 [3]: > 20 µM (inactive)

O=C(Nc1ccc([N+](=O)[O-])cc1)Nc1ccon1
EC50 [4]: 1.21 µM (active)
EC50 [5]: 4.66 µM (active)
EC50 [6]: < 0.104 µM (active)
IC50 [7]: > 80 µM (inactive)
EC50 [8]: 1.57 µM (active)
EC50 [9]: 12.1 µM (active)

CCNC(=O)OCC12CC3CC(CC(C3)C1)C2
AC50 [10]: 33.5 µM (active)

COc1ccc(NC(=O)Nc2nnc(-c3ccncc3)s2)cc1
IC50 [11]: > 20 µM (inactive)
EC50 [12]: 5.39 µM (active)
IC50 [13]: 5.85 µM (active)
IC50 [14]: 6.01 µM (active)

O=C1/C(=C/c2ccc(C(=O)O)cc2)CCC/C1=C\c1ccc(C(=O)O)cc1
IC50 [15]: > 100 µM (active)
IC50 [16]: 62.7 µM (active)

CCn1c2ccc(C)cc2c2nnc(SCCN3CCOCC3)nc21
AC50 [10]: 89.7 µM (active)

Cc1c(NC(=S)NC(=O)c2ccc(-c3ccc(Cl)cc3)o2)cccc1C(=O)O
CC50 [17]: 35.4 µM (active)
IC50 [16]: 29.7 µM (active)

Cc1ccc(NC(=O)NCc2ccc3c(c2)OCO3)cc1
IC50 [18]: > 50 µM (inactive)

O=C(O)C1CCN(c2nc(-c3ccccc3)nc3c2oc2ccccc23)CC1
IC50 [19]: 9.12 µM (active)
IC50 [16]: 30.1 µM (active)

COc1ccc(OC)c(CNc2ccc([N+](=O)[O-])cc2C)c1
IC50 [18]: > 50 µM (inactive)
IC50 [20]: 8.98 µM (not active)

COc1ccccc1NS(=O)(=O)c1cc(NC(C)=O)ccc1N1CCCCC1
AC50 [10]: 30.4 µM (active)

CN(C(=O)COC(=O)c1cc(-c2ccc(Br)cc2)[nH]n1)C1CCCCC1
IC50 [1]: > 100 µM (inactive)
IC50 [2]: > 100 µM (not active)

COc1ccc(NC(=O)CN2C(=O)CSC(C)C2=O)cc1 (centres undefined)
IC50 [16]: 3.83 µM (active)

CCc1nc2ccccc2c(C(=O)OCc2nc3ccccc3c(=O)[nH]2)c1C
IC50 [3]: > 20 µM (inactive)

O=C(N[C@H](C(=O)O)c1ccccc1)C1CCC(Cn2nnc3ccccc3c2=O)CC1 (some centres undefined)
IC50 [18]: > 50 µM (inactive)

c1cncc(-n2cnnn2)c1
IC50 [1]: > 100 µM (inactive)
IC50 [2]: > 100 µM (not active)

C=CC(=O)Nc1ccc(N(C)c2ccnc(Nc3ccc(N4CCN(C)CC4)cc3)n2)cc1
IC50 [21]: 25.5 µM (active)
IC50 [3]: > 20 µM (inactive)
AC50 [22]: 21 µM (active)

COc1ccccc1N1CCN(C/C(O)=C(\C#N)c2nc(-c3ccccc3)cs2)CC1
IC50 [18]: > 50 µM (inactive)

CC(C)/N=C/c1c(O)[nH]c2ccccc12
IC50 [18]: > 50 µM (inactive)

Cn1c(=O)[nH]c2ncn(C)c2c1=O [PARAXANTHINE]
AC50 [23]: inconclusive
AC50 [10]: 23.3 µM (active)
